Laboratory results from ChEMBL document CHEMBL1153219, “Evaluation of human neutrophil elastase inhibitory effect of iridoid glycosides from Hedyotis diffusa” (Bioorg Med Chem Lett, 2010).

Biological target: T1, Neutrophil elastase (Homo sapiens, UniProt P08246)
T1 sequence (P08246 whole entry): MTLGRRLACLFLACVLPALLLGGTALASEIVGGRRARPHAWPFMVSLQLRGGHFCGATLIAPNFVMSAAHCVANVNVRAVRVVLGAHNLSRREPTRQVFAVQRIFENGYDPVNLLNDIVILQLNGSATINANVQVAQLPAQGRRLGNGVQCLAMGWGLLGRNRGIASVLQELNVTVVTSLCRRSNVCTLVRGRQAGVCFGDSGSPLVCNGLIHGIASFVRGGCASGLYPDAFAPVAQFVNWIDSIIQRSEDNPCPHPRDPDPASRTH
Assay: Inhibition of human neutrophil elastase

O=C(O[C@@H]1Cc2c(O)cc(O)cc2O[C@@H]1c1cc(O)c(O)c(O)c1)c1cc(O)c(O)c(O)c1 [EPIGALOCATECHIN GALLATE]
IC50: 12.8 µM
